Test system: Y-1 (ATCC Accession No. CCL 79) cells
Test: GEM (Gene Expression Microarray) expression profile of treated vs control Y1 cells, Incyte mouse cDNA array
Type: cell-based
Settings: 16 hours; for number of common genes upregulated by FSH, 024 & forskolin: Y1 cells, FSH 10^-9 M, 024 1 uM, Forskolin 1 uM
Description: A mouse cDNA array from Incyte, Inc. was used to analyze the expression profile of Y-1 (ATCC Accession No. CCL 79) cells. This transcriptional profile analysis led to the identification of the FSH or FSH Mimetic stimulated genes of the invention.
Y1 cells were incubated with Ham's F-10 Nutrient Mixture Media supplemented with glutamine (1%), G418 geneyticin (80 ug/ml), penicillin-streptomycin (1%), fetal horse serum (15%), and fetal bovine serum (2.5%) and grown to confluency. Confluent cells were then exposed to FSH at 10^-9 M (See Table 1) or FSH Mimetic 024 at 1 uM (see Table 3), Forskolin at 1 uM (See Table 4) and all three agents (i.e., FSH at 10^−9 M, FSH Mimetic 024 at 1 uM and Forskolin at 1 uM—See Table 2) for 16 hours. Total RNA was isolated from control or treated cells with ULTRASPEC™ RNA from Biotech Laboratories, Inc. All media and supplements were obtained from Gibco BRL Life Technologies.
The GEM (Gene Expression Microarray) technology uses the following steps to discover differences in gene expression between two messenger RNA (mRNA) samples. Small samples of cDNA were deposited on a glass surface and bonded to the glass. Subsequently, large portions from one half of the DNA's double strands were removed in order to activate the individual elements of the array, preparing them to react and bind to their uniquely matched DNA counterparts in the cells being tested.
Two mRNA samples were prepared and color labeled, since the GEM technology uses a color coding technique to discover the differences in gene expression between two mRNA samples. […]
The two fluorescent probe samples were simultaneously applied to a single microarray, where they competitively react with the arrayed cDNA molecules. […] The intensity of the fluorescence at each array element is proportional to the expression level of that gene in the sample. […] The ratio of the two fluorescent intensities provided a quantitative measurement of the relative gene expression level in the two cell samples. […]

Compound	number of common genes upregulated by FSH, 024 & forskolin	number of genes regulated in Y1 cells (FSH at 10^-9 M)
C=C[C@@]1(C)CC(=O)[C@]2(O)[C@@]3(C)[C@@H](O)CCC(C)(C)[C@@H]3[C@H](O)[C@H](OC(C)=O)[C@@]2(C)O1 [Forskolin, reference compound]	64 common genes upregulated by FSH, 024 & forskolin	
Follicle Stimulating Hormone [FSH]	64 common genes upregulated by FSH, 024 & forskolin	FSH regulats 189 genes in Y1 cells

Reference: patent publication US20030162692A1, “Follicle stimulating hormone stimulated genes and uses thereof” (priority 2000, published 2003)
